Patent publication US20260133203A1, “DETECTION OF FUMARATE-DERIVED MODIFICATION IN A TEST SAMPLE” (UNIVERSITY OF SOUTH CAROLINA, priority 2017, published 2026)
Counter-ions that a name gives are not always drawn.

System: primary rat astrocytes
Experiment: LC-MS/MS identification of succinated proteins in primary rat astrocytes
Format: cell-based
Settings: 24 hours treatment with up to 100 μM DMF
Experimental: Primary astrocytes were isolated and cultured from neonatal P1-P2 Sprague-Dawley rats. Animals were decapitated following which cortices, brainstem, and hippocampi were aseptically dissected in petri dishes filled with ice-cold Hanks' Balanced Salt Solution (Corning® HBSS; Sigma, St. Louis, MO), HEPES (10 mM; Sigma), and gentamicin sulfate (5 μg/mL; Life Technologies, Carlsbad, CA). The dissected tissue was cut into pieces and dissociated by trypsin treatment (10 μl/mL; Life Technologies, Carlsbad, CA), followed by trituration with sterile glass pipettes. Cells were plated in 24-well plates pre-coated with poly-l-lysine (50 μg/mL; Sigma). Cultures were maintained in DMEM/F12 (Life Technologies) medium supplemented with 10% fetal bovine serum (FBS) and stored in an incubator at 37° C. ([…]). […] After gel extraction, the peptides were re-suspended in 1% acetic acid and analyzed on a DionexTM […] system (Thermo ScientificTM, Rockford, IL) coupled to an Orbitrap Velos ProTM mass spectrometer (Thermo ScientificTM, Rockford, IL). […] The data-dependent acquisition (DDA) data were analyzed using Proteome DiscovererTM 1.4 software with SEQUEST search engine against the uniprot_ref_mouse database (2014-10-03 version, 52,474 proteins) or uniprot_ref_rat database (2011-5-11 version, 39765 proteins) with Xcorr>1 validation (+2) and an allowance for 2 missed cleavages. […]

SMILES: COC(=O)/C=C/C(=O)OC [DMF, dimethyl fumarate]
- number of succinated protein subunits detected: 11
